Laboratory results as given in patent US12448388B2, “PRMT5 inhibitors and uses thereof” (Gilead Sciences, Inc., priority 2023, dated 2025).

Each compound was assayed on HCT116 MTAP-deleted cell lines (assay: Cell viability assay (CellTiter-Glo, 7 days), HCT116 MTAP-deleted). Conditions: Homo sapiens, HCT-116; cell viability assay, HCT116 MTAP-deleted; class symbols; read-out: CC50.
Type: cell-based
Summary of the method: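 HCT116 MTAP-deleted and wild-type cells exposed to serially diluted compound for 7 days at 37 °C, 5% CO2. Viability read by CellTiter-Glo luminescence; CC50 derived per line, with selectivity comparing WT to MTAP-deleted, limited solubility can inflate values marked *.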

SMILES | CC50 [nM]
CN(C(=O)c1ccc2nc(N)c3cncn3c2c1)[C@@H]1COc2cc(OC(F)(F)F)ccc21 [Ff-563, (S)-4-amino-N-methyl-N-(6-(trifluoromethoxy)-2,3-dihydrobenzofuran-3-yl)imidazo[1,5-a]quinoxaline-8-carboxamide] | < 100
Nc1nc2cnc(C(=O)N3CCO[C@@H]4Cc5cc(C(F)(F)F)cc(F)c5[C@@H]43)cc2n2cncc12 [Ff-540, (4-aminoimidazo[1,5-a]pyrido[3,4-e]pyrazin-8-yl)((4aS,9aR)-5-fluoro-7-(trifluoromethyl)-2,3,9,9a-tetrahydroindeno[2,1-b][1,4]oxazin-4(4aH)-yl)methanone] | 100 to 1000
COC1(C#Cc2ccc3c(c2)OC[C@H]3N(C)C(=O)c2ccc3nc(N)c4cncn4c3c2)CCC1 [Ff-519, (S)-4-amino-N-(6-((1-methoxycyclobutyl)ethynyl)-2,3-dihydrobenzofuran-3-yl)-N-methylimidazo[1,5-a]quinoxaline-8-carboxamide] | 100 to 1000
CN(C(=O)c1ccc2nc(N)c3cncn3c2c1)[C@@H]1COc2cc(C#CC3(C(F)F)CC3)ccc21 [Ff-521, (S)-4-amino-N-(6-((1-(difluoromethyl)cyclopropyl)ethynyl)-2,3-dihydrobenzofuran-3-yl)-N-methylimidazo[1,5-a]quinoxaline-8-carboxamide] | 100 to 1000
CN(C(=O)c1cc2c(cc1F)nc(N)c1cncn12)C1CCc2sccc21 (stereo not drawn) [Ff-426, 4-amino-N-(5,6-dihydro-4H-cyclopenta[b]thiophen-4-yl)-7-fluoro-N-methyl-imidazo[1,5-a]quinoxaline-8-carboxamide] | 100 to 1000
CN(Cc1ccc(Br)c(C(F)F)c1)C(=O)c1cc2c(cc1F)nc(N)c1cncn12 [Ff-596, 4-amino-N-(4-bromo-3-(difluoromethyl)benzyl)-7-fluoro-N-methylimidazo[1,5-a]quinoxaline-8-carboxamide] | 100 to 1000
CN(C(=O)c1cc2c(cc1F)nc(N)c1cncn12)[C@@H]1COc2c1ccc(OC(F)F)c2F [Ff-672, (S)-4-amino-N-(6-(difluoromethoxy)-7-fluoro-2,3-dihydrobenzofuran-3-yl)-7-fluoro-N-methylimidazo[1,5-a]quinoxaline-8-carboxamide] | < 100
CN(C(=O)c1cc2c(cc1F)nc(N)c1cncn12)[C@@H]1COc2cc(C#CC3(C(F)(F)F)CC3)ccc21 [Ff-522, (S)-4-amino-7-fluoro-N-methyl-N-(6-((1-(trifluoromethyl)cyclopropyl)ethynyl)-2,3-dihydrobenzofuran-3-yl)imidazo[1,5-a]quinoxaline-8-carboxamide] | 100 to 1000
CN(C(=O)c1cc2c(cn1)nc(N)c1cncn12)[C@@H]1COc2cc(C34CC(C3)C4)ccc21 [Ff-449, 7-amino-N-[(3S)-6-(1-bicyclo[1.1.1]pentanyl)-2,3-dihydrobenzofuran-3-yl]-N-methyl-2,4,8,11-tetrazatricyclo[7.4.0.02,6]trideca-1(9),3,5,7,10,12-hexaene-12-carboxamide] | < 100
CN(C(=O)c1cc2c(cc1C#N)nc(N)c1cncn12)[C@@H]1COc2cc(OC(F)(F)F)ccc21 [Ff-561, (S)-4-amino-7-cyano-N-methyl-N-(6-(trifluoromethoxy)-2,3-dihydrobenzofuran-3-yl)imidazo[1,5-a]quinoxaline-8-carboxamide] | < 100
CN(C(=O)c1cc2c(cc1F)nc(N)c1cncn12)[C@@H]1COc2cc(C#CC3(C(F)F)CCOCC3)ccc21 [Ff-437, (S)-4-amino-N-(6-((4-(difluoromethyl)tetrahydro-2H-pyran-4-yl)ethynyl)-2,3-dihydrobenzofuran-3-yl)-7-fluoro-N-methylimidazo[1,5-a]quinoxaline-8-carboxamide] | < 100
CN(C(=O)c1cc2c(cc1F)nc(N)c1c(Br)ncn12)[C@@H]1COc2cc(C(F)(F)F)ccc21 (single isomer, unassigned) [Ff-494] | 100 to 1000
C[C@H](C(N)=O)N(Cc1ccc(C(F)(F)F)cc1F)C(=O)c1cc2c(cc1F)nc(N)c1cncn12 [Ff-420, 4-amino-N-[(1R)-2-amino-1-methyl-2-oxo-ethyl]-7-fluoro-N-[[2-fluoro-4-(trifluoromethyl)phenyl]methyl]imidazo[1,5-a]quinoxaline-8-carboxamide] | 100 to 1000
CN(C(=O)c1cc2c(cc1F)nc(N)c1cncn12)[C@@H]1COc2cc(C(F)F)ccc21 [Ff-576, (S)-4-amino-N-(6-(difluoromethyl)-2,3-dihydrobenzofuran-3-yl)-7-fluoro-N-methylimidazo[1,5-a]quinoxaline-8-carboxamide] | 100 to 1000
Cc1ncn2c1c(N)nc1cnc(C(=O)N3C[C@H](C)C[C@@H]4Oc5cc(C(F)(F)F)c(F)cc5[C@@H]43)cc12 [Fg-39, (4-amino-3-methylimidazo[1,5-a]pyrido[3,4-e]pyrazin-8-yl)((3R,4aS,9bS)-8-fluoro-3-methyl-7-(trifluoromethyl)-3,4,4a,9b-tetrahydrobenzofuro[3,2-b]pyridin-1(2H)-yl)methanone] | < 100

Same assay, conditions: Homo sapiens, HCT-116; cell viability, HCT116 MTAP-deleted; class symbols; read-out: CC50

SMILES | CC50 [nM]
CN(C(=O)c1cc2c(cc1F)nc(N)c1cncn12)[C@@H]1COc2cc(C#N)ccc21 [Ff-269, (S)-4-amino-N-(6-cyano-2,3-dihydrobenzofuran-3-yl)-7-fluoro-N-methylimidazo[1,5-a]quinoxaline-8-carboxamide] | < 100
Cc1ncc2c(N)nc3cnc(C(=O)N4CCO[C@@H]5Cc6cc(OC(F)(F)F)c(F)cc6[C@@H]54)cc3n12 [Ff-179, (4-amino-1-methylimidazo[1,5-a]pyrido[3,4-e]pyrazin-8-yl)((4aS,9aR)-6-fluoro-7-(trifluoromethoxy)-2,3,9,9a-tetrahydroindeno[2,1-b][1,4]oxazin-4(4aH)-yl)methanone] | < 100
N#Cc1cc2nc(N)c3cncn3c2cc1C(=O)N1CCC[C@@H]2Oc3cc(OC(F)(F)F)ccc3[C@@H]21 [Ff-349, 4-amino-8-((4aS,9bS)-7-(trifluoromethoxy)-1,2,3,4,4a,9b-hexahydrobenzofuro[3,2-b]pyridine-1-carbonyl)imidazo[1,5-a]quinoxaline-7-carbonitrile] | < 100
CN(C(=O)c1cc2c(cc1F)nc(N)c1cncn12)[C@@H]1COc2ccc([C@H]3C[C@@H]3C#N)cc21 (stereo in doubt) [Ff-263, Trans-4-amino-N-((3S)-5-(2-cyanocyclopropyl)-2,3-dihydrobenzofuran-3-yl)-7-fluoro-N-methylimidazo[1,5-a]quinoxaline-8-carboxamide] | 100 to 1000
Nc1nc2cc(F)c(C(=O)N3CCO[C@H]4Cc5cc(C(F)(F)F)ccc5[C@H]43)cc2n2cncc12 (single isomer, unassigned) [Ff-83] | 100 to 1000
C[C@H]1CN(C(=O)c2cc3c(cc2F)nc(N)c2cncn23)[C@H]2c3ccc(-c4cnn(C(F)(F)F)c4)cc3C[C@H]2O1 [Ff-97, (4-amino-7-fluoroimidazo[1,5-a]quinoxalin-8-yl)((2S,4aS,9aR)-2-methyl-7-(1-(trifluoromethyl)-1H-pyrazol-4-yl)-2,3,9,9a-tetrahydroindeno[2,1-b][1,4]oxazin-4(4aH)-yl)methanone] | 100 to 1000
C[C@@H]1CN(C(=O)c2cc3c(cn2)nc(N)c2cncn23)[C@H]2c3ccc(OC(F)(F)F)cc3C[C@H]2O1 (single isomer, unassigned) [Ff-185] | < 100
Nc1nc2cc(F)c(C(=O)N3CCO[C@@H]4Cc5c(ccc(C(F)F)c5F)[C@@H]43)cc2n2cncc12 [Ff-169, (4-amino-7-fluoroimidazo[1,5-a]quinoxalin-8-yl)((4aS,9aR)-7-(difluoromethyl)-8-fluoro-2,3,9,9a-tetrahydroindeno[2,1-b][1,4]oxazin-4(4aH)-yl)methanone] | < 100
CC(=O)N(C)N(Cc1ccc(C(F)(F)F)cc1Cl)C(=O)c1ccc2nc(N)c3cncn3c2c1 [Fb-17, N′-acetyl-4-amino-N-(2-chloro-4-(trifluoromethyl)benzyl)-N′-methylimidazo[1,5-a]quinoxaline-8-carbohydrazide] | < 100
CC(C)N(Cc1ccc(-c2cnn(C(F)(F)F)c2)cc1F)C(=O)c1ccc2nc(N)c3cncn3c2c1 [Ff-50, 4-amino-N-(2-fluoro-4-(1-(trifluoromethyl)-1H-pyrazol-4-yl)benzyl)-N-isopropylimidazo[1,5-a]quinoxaline-8-carboxamide] | < 100
Nc1nc2cc(F)c(C(=O)N3CC(F)(F)CCC3c3ccc(C(F)(F)F)cn3)cc2n2cncc12 (stereo not drawn) [Ff-222, (4-amino-7-fluoroimidazo[1,5-a]quinoxalin-8-yl)(5,5-difluoro-2-(5-(trifluoromethyl)pyridin-2-yl)piperidin-1-yl)methanone] | < 100
Nc1nc2cc(F)c(C(=O)N3CCC[C@@H]4Oc5cc(C(F)(F)F)c(F)cc5[C@@H]43)cc2n2cncc12 [Ff-105, (4-amino-7-fluoroimidazo[1,5-a]quinoxalin-8-yl)((4aS,9bS)-8-fluoro-7-(trifluoromethyl)-3,4,4a,9b-tetrahydrobenzofuro[3,2-b]pyridin-1(2H)-yl)methanone] | < 100
Nc1nc2ccc(C(=O)N3CCC[C@@H]4OCc5cc(OC(F)F)ccc5[C@@H]43)cc2n2cncc12 (racemic) [Ff-288, Rac-(4-aminoimidazo[1,5-a]quinoxalin-8-yl)((4aS,10bS)-8-(difluoromethoxy)-2,3,4,4a,6,10b-hexahydro-1H-isochromeno[4,3-b]pyridin-1-yl)methanone] | < 100
Nc1nc2cc(F)c(C(=O)N(Cc3ccc(C(F)(F)F)cn3)c3cnn(-c4ccccc4)c3)cc2n2cncc12 [Ff-315, 4-amino-7-fluoro-N-(1-phenyl-1H-pyrazol-4-yl)-N-((5-(trifluoromethyl)pyridin-2-yl)methyl)imidazo[1,5-a]quinoxaline-8-carboxamide] | < 100
CN(Cc1ccc2c(c1)OC(F)(F)O2)C(=O)c1cc2c(cc1F)nc(N)c1cncn12 [Ff-124, 4-amino-N-((2,2-difluorobenzo[d][1,3]dioxol-5-yl)methyl)-7-fluoro-N-methylimidazo[1,5-a]quinoxaline-8-carboxamide] | 100 to 1000
